Source: patent US20250186475A1, “METHODS OF TREATING MEDICAL CONDITIONS USING ISLATRAVIR OR A RELATED COMPOUND” (ROME Therapeutics, Inc., priority 2022, published 2025)

Legend:
Type in all cases: cell-based
[1] = test system: THP1-Dual™ KO-TREX1 cells; assay: CellTiter-Glo cell viability in THP1 TREX1 KO cells; settings: Homo sapiens, 120 h, in the presence of 1 μM 5-aza-2′-deoxycytidine, five days, read-out: CellTiter-Glo inhibition IC50
Procedure: (§1) THP1-Dual™ KO-TREX1 cells were purchased from Invivogen (cat #thpd-kotrex). The THP1-Dual™ KO-TREX1 cells were cultured in RPMI 1640, 10% heat-inactivated fetal bovine serum, 25 mM HEPES, 10 μg/mL Blasticidin, and 100 μg/mL Zeocin. THP1-Dual™ KO-TREX1 cells were treated with a dose titration of test compound in the presence of 1 μM 5-aza-2′-deoxycytidine (Sigma, cat #189825). Type 1 Interferon and cell viability were assessed after five days of treatment.
(§2) Stock solution of test compound was prepared in DMSO followed by a three-fold dilution in DMSO. Additional 50× dilution was prepared in cell culture media for each dilution. 10 μL of diluted test compound was then added to a 384-well plate.
THP1-Dual™ KO-TREX1 cells were treated with 1 μM 5-aza-2′-deoxycytidine. THP1-Dual™ KO-TREX1 cells (50 μL) were added to each well of the 384-well plate containing test compound titration at 10,000 cells/well. Cells were incubated at 37° C., 5% CO2 in a humidified incubator for five days. […] Luminescence was detected on a plate reader according to manufacturer's instructions. […]
The remaining cells were assessed for cell viability by adding 30 μl of CellTiter-Glo (Promega, G9683) solution to each well, and placed on a shaker for 10 minutes at room temperature. Luminescence was detected on a plate reader, according to manufacturer's instructions. […]

SK-OV-3 cells = assay: Cancer cell viability assay with 3D cell colonies (CellTiter-Glo), SK-OV-3; settings: Homo sapiens, SK-OV-3, 168 h; 3D tumorsphere growth, 7 days
Procedure: Ovarian cancer cell line SK-OV-3 cells were cultured in McCoy's 5a media containing 10% FBS. Ovarian cancer cell line OVCAR-8 cells were cultured in RPMI media containing 10% FBS. Additional cancer cell lines were cultured in the following media: • Ovarian cancer SW756 cells—L-15 (100% air)+10% FBS • Esophageal cancer TE-1 cells—RPMI-1640+10% FBS • Esophageal cancer KYSE-410 cells—RPMI-1640+5˜10% FBS • Esophageal cancer KYSE-70 cells—RPMI-1640+10% h.i.FBS. • Pharyngeal cancer FaDu cells—MEM+0.01 mM NEAA+10% FBS
Cell colony formation was tested using a 3D methylcellulose-based CellTiter-Glo (CTG) viability assay (Cat. No: G7573, Promega). Briefly, cells were inoculated into 96-well plates (at 1,500 cells per well) into a solution of 0.65% methylcellulose in growth media and incubated overnight at 37° C. in 5% CO2. The next day, serially diluted test compound (islatravir) or positive control (cisplatin, Cat. No. 6J015A89, Qilu Pharma) were added at the indicated concentrations, and the cells were incubated for 7 days. On day seven, 100 μL of CTG reagent was added, and the plates were incubated at room temperature for 20 min. Luminescence was read on an Envision Multi Label Reader according to manufacturer's instructions. IC50 values were determined using the following calculation: […]

[2] = test system: THP1-Dual™ KO-TREX1 cells; assay: Cellular assay for altering IFN production in THP1 TREX1 KO cells; settings: in the presence of 1 μM 5-aza-2′-deoxycytidine, five days
Procedure: as §1, §2
THP1-Dual™ KO-TREX1 cells were treated with 1 μM 5-aza-2′-deoxycytidine. THP1-Dual™ KO-TREX1 cells (50 μL) were added to each well of the 384-well plate containing test compound titration at 10,000 cells/well. Cells were incubated at 37° C., 5% CO2 in a humidified incubator for five days. On day five, 20 μL of cell supernatant was transferred to a 384-well, white-walled plate, followed by addition to each well of 50 μL of QUANTI-LUC solution containing stabilizer. Luminescence was detected on a plate reader according to manufacturer's instructions. […]

[3] = biological target: T1, LINE1 reverse transcriptase (Homo sapiens, UniProt O00370); assay: Stable artificial-intron Cis LINE1 reporter assay (HeLa Tet-On 3G); settings: HeLa L1 reporter cells, doxycycline induced, 72 h; read-out: IC50 for inhibition of FLuc luminescence
T1 construct: expressed in transfected cells
Description: A stable HeLa Tet-On 3G (Takara, cat no 631183) cell line expressing a bi-directional inducible LINE1 construct was generated as described in Xie, Y. et al. “Cell division promotes efficient retrotransposition in a stable L1 reporter cell line,” Mobile DNA (2013) 4:10. Single cell clones were screened for high Luciferase expression and the highest expression Firefly expressing clone was chosen for compound testing.
Test compound was serially diluted in DMSO and spotted in 96-well plates. Subsequently the HeLa L1 artificial-intron reporter cells were plated into the compound-containing wells (8,000 cells/well), and the cells were induced for reporter expression with doxycycline (Sigma cat no D9891) at a final concentration of 500 ng/mL. Luminescence was measured 72 h after plating using the Dual-Glo Luciferase Assay System (Promega cat no E2940) following the manufacturer's instructions. The Firefly Luciferase activity was used to report LINE1 activity.

T1 sequence (O00370 whole entry, looked up): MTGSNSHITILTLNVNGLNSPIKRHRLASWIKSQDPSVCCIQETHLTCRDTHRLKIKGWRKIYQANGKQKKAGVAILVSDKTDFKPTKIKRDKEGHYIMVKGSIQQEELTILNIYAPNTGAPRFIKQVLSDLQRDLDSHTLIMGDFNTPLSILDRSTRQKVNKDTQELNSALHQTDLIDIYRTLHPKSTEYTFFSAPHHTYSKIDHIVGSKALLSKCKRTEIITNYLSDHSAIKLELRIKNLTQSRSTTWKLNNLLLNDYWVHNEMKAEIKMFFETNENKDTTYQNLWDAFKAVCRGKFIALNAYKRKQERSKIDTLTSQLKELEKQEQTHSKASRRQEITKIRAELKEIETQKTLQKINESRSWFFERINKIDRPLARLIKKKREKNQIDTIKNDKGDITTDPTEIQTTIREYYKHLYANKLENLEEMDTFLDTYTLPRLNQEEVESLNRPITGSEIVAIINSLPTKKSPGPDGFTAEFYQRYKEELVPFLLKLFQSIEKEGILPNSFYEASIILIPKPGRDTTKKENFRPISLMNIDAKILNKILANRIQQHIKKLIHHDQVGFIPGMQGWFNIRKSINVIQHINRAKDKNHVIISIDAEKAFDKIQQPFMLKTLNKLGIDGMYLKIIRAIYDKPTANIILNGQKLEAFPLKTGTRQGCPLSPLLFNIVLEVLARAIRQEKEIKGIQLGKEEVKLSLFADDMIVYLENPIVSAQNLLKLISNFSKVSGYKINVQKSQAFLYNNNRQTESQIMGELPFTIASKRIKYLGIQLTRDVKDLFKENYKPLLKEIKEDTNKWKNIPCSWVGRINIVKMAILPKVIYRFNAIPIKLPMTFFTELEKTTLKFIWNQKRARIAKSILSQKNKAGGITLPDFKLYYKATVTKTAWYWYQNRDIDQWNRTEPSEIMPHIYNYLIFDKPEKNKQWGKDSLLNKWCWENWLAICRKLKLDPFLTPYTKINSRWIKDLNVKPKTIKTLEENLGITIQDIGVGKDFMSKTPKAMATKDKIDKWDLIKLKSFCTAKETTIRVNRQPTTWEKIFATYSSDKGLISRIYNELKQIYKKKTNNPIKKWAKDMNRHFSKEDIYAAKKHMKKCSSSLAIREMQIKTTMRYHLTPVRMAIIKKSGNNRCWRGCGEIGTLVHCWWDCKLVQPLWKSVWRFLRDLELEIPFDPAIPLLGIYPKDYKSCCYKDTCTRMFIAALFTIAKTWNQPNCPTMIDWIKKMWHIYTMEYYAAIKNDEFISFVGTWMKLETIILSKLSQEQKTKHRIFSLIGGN

- IC50 [1]: > 20 µM
- IC50 (SK-OV-3 cells): 6.54 µM
- IC50 [3]: 0.00069 µM
SMILES: C#C[C@]1(CO)O[C@@H](n2cnc3c(N)nc(F)nc32)C[C@@H]1O [Islatravir, (2R,3S,5R)-5-(6-amino-2-fluoro-9H-purin-9-yl)-2-ethynyl-2-(hydroxymethyl)tetrahydrofuran-3-ol]
- changes in IFN levels (% induction) [2]: induction of IFN
